Assay results taken from EP0975351B1, “TREATMENT OF MULTIPLE SCLEROSIS THROUGH INGESTION OF COPOLYMER-1” (YEDA RESEARCH AND DEVELOPMENT CO. LTD., priority 1997, dated 1998).

Experiments:
[1] = tested on: T-cell line derived from spleens of glatiramer acetate fed rats; assay: Cytokine assay of T-cell line from spleens of fed rats (ELISA); type: cell-based; details: rat line cultured with glatiramer acetate as antigen (Figure 6)
Protocol: (§1) Isolation of glatiramer acetate specific T cell lines - Lewis rats were fed 5 times with 1 mg glatiramer acetate and (SJUJ x BALB/c)F, mice 7 times with 250 µg glatiramer acetate, at intervals of 2-3 days. Four to twelve days after the last feeding animals were sacrificed and their spleens removed.
(§2) Spleen cells of 3 animals were pooled and incubated (50 x 10^6/plate) with glatiramer acetate (500 µg) in medium containing 1 % autologous serum for 4 days. Every 14-21 days cells (4-6 x 10^6/plate) were restimulated by 3 days exposure to copolymer-1 (500 µg) presented on syngeneic irradiated (3000 rad) rat thymocytes (100 x 10^6/plate) or mouse splenocytes (50 x 10^6/plate). Stimulation was followed by propagation in 10% supernatant of Con A activated normal mouse spleen cells as T cell growth factor (TCGF).
Cytokine Assay - T cells of rat line (0.5 x 10^6/ml) were incubated with irradiated thymocytes (10 x 10^6) with or without the indicated antigen (50µg glatiramer acetate; 5µg Con A). Cells were cultured for 24 hours in RPMI 1640 supplemented with 10% FCS for IL-2, TNFα, IL-4 and IL-10-measurements and in serum free medium - DCCM-1 (Biological Industries, Kibbutz Beit Haemek, Israel) for 72 hours for TGFβ measurement.
Cytokine levels in supernatants were measured in a quantitative ELISA using pairs of monoclonal antibodies specific for the corresponding cytokines.

[2] = tested on: TGF-beta; assay: Reaction of MBP-bound plasma material with anti-TGF-beta antibody; type: in vivo, Rhesus Monkeys; details: plasma material bound to MBP
Text: (§3) Recombinant human TGF-beta reacted with the anti-TGF-beta, but not 3C9 antibody. Table 5: Assay for MBP-specific T suppressor Inducer factora

[3] = tested on: EAE; assay: EAE in Rhesus monkeys, enteric-coated versus cracked coating capsules (Example 4); type: in vivo; details: for protection from the disease: Fig. 10
Protocol: Six monkeys were treated and subsequent analyses performed substantially according to the protocol described for Example 3 hereinabove.
Control placebo-fed animal 18746 was fed with capsules containing glucose. Animal 18586 was fed with 1 mg glatiramer acetate in capsules with cracked […]. Animal 18586 was fed with 1 mg glatiramer acetate in capsules with cracked enteric coating. Animal 18639 was fed with 20 mg glatiramer acetate in capsules with cracked enteric coating. […] Animal 18962 was fed with 20 mg glatiramer acetate in intact enteric coated capsules.
The schedule of feeding, disease induction and follow-up were substantially the same as those of Example 3 described hereinabove.

[4] = tested on: T-cell line derived from spleens of glatiramer acetate fed rats; assay: Proliferation assay of T-cell line from spleens of fed rats; type: cell-based; details: rat line cultured with glatiramer acetate as antigen (Figure 6)
Protocol: as §1, §2
Proliferation Assay - T cell lines (1 x 10^4 cells) were cultured with irradiated (3000R) thymocytes (rat-1 x 10^6) or splenocytes (mouse- 5 x 10^5) and with the indicated antigens (10 µg glatiramer acetate; 1 µg Con A) in a final volume of 0.2 ml in microtiter plates. At the end of 48 hours incubation cultures were pulsed with ^3H-thymidine and harvested 6-12 hours later.

[5] = tested on: EAE; assay: Dose response study of oral Copolymer-1 in rats (EAE); type: in vivo; details: for Mean Score ±SD: PBS control 1.32±0.64; for Incidence: PBS control 10/11; for Mean Onset: PBS control 13.1; for Suppression* (%): calculated by mean score
Protocol: Rats were immunized with 25 µg of GPBP emulsified 1:1 in CFA containing 4 mg/ml. H37Ra. The emulsion at a total volume of 0.1 ml. was injected into the two hindfoot pads.
Animals were examined daily from day 10 post induction for signs of disease. EAE was scored as follows: 0-no disease, 1-limp tail, 2-hind limb paralysis, 3-paralysis of all four limbs, 4-moribund condition, 5-death.
Rats were fed with 1 mg GPBP or glatiramer acetate dissolved in PBS by gastric intubation using a sterile feeding tube (Uno Plast, Denmark). Rats were fed 5 times (total dose of 5 mg) before disease induction at intervals of 2-3 days. EAE was induced two days after the last feeding. Control mice and rats were mock fed with PBS.
Rats were fed 5 times with 0.5, 1 or 2 mg glatiramer acetate according to the established protocol (see Materials and Methods, above) and then challenged for EAE induction.

[6] = tested on: exacerbating-remitting multiple sclerosis; details: daily subcutaneous injections, phase III clinical trials; cited from earlier work
[7] = tested on: MBP-specific T suppressor Inducer factor; assay: Assay for MBP-specific T suppressor inducer factor in plasma (3C9 antibody); type: in vivo, Rhesus Monkeys; details: for MBP-specific T suppressor Inducer factor: plasma 1:20 dilution; for anti-Tsfi (3C9 Ab): plasma material bound to MBP (2.5µg)
Text: The analysis, for MBP-specific Tsfi in the plasma of the three monkeys in this Example are seen in Tables 5 and 6 below. None of the animals produced MBP-specific Tsfi until day +13 following EAE induction with MBP. […] Glatiramer acetate fed animals 18497 and 18498 consistently produced significant levels of Tsfi from day +13 until day +41 shortly before termination.
as §3

[8] = animal 18497, 1mg/feeding then 20mg capsules after day 33, day +41
[9] = animal 18497, 1mg/feeding, day +6
[10] = animal 18497, 1mg/feeding, day +13
[11] = animal 18497, 1mg/feeding, day +27
[12] = animal 18498, 20mg/feeding, day +6
[13] = animal 18498, 20mg/feeding, day +13
[14] = animal 18498, 20mg/feeding, day +27
[15] = animal 18498, 20mg/feeding, day +41
[16] = capsules with cracked enteric coating, 1 mg (animal 18586) and 20 mg (animal 18639)

Substance: glatiramer acetate
- cytokine secretion response of T-cell line [1]: secreted IL-2, some IL-10 and TGFβ but not TNFα or IL-4
- anti-TGF-beta [2, 8]: 0.85 OD405nm
- anti-TGF-beta [2, 9]: none
- anti-TGF-beta [2, 10]: 0.71 OD405nm
- anti-TGF-beta [2, 11]: 0.65 OD405nm
- anti-TGF-beta [2, 12]: none
- anti-TGF-beta [2, 13]: 0.35 OD405nm
- anti-TGF-beta [2, 14]: 0.47 OD405nm
- anti-TGF-beta [2, 15]: 0.45 OD405nm
- time to death from disease manifestations [3, 16]: 2 to 3 days
- protection from the disease [3, 16]: not protected from the disease
- protection from the disease ([3]; intact enteric coated capsules, 1 mg, 10 mg, 20 mg (animals 18724, 18810, 18962)): fully protected from the disease
- signs of EAE ([3]; intact enteric coated capsules, 1 mg, 10 mg, 20 mg, until day 60 when sacrificed): developed no signs of EAE until day 60
- proliferation response of T-cell line [4]: proliferated in response to glatiramer acetate
- Mean Score ±SD ([5]; rats fed 5 times 0.5 mg): 0.95±0.57
- Incidence ([5]; rats fed 5 times 0.5 mg): 9/11
- Mean Onset ([5]; rats fed 5 times 0.5 mg): 13.5
- Suppression* (%) ([5]; rats fed 5 times 0.5 mg): 28%
- Mean Score ±SD ([5]; rats fed 5 times 1 mg): 0.64±0.50
- Incidence ([5]; rats fed 5 times 1 mg): 7/11
- Mean Onset ([5]; rats fed 5 times 1 mg): 15.1
- Suppression* (%) ([5]; rats fed 5 times 1 mg): 51%
- Mean Score ±SD ([5]; rats fed 5 times 2 mg): 0.91±0.70
- Incidence ([5]; rats fed 5 times 2 mg): 8/11
- Mean Onset ([5]; rats fed 5 times 2 mg): 13.1
- Suppression* (%) ([5]; rats fed 5 times 2 mg): 31%
- progression of disability and relapse rate [6]: slow progression of disability and reduce the relapse rate
- MBP-specific T suppressor Inducer factor ([7]; animal 18497, 1mg/feeding then 20mg capsules after day 33, day +34): .66 OD at 405nm
- MBP-specific T suppressor Inducer factor [7, 8]: .76 OD at 405nm
- MBP-specific T suppressor Inducer factor [7, 9]: none
- MBP-specific T suppressor Inducer factor [7, 10]: .60 OD at 405nm
- MBP-specific T suppressor Inducer factor ([7]; animal 18497, 1mg/feeding, day +20): .61 OD at 405nm
- MBP-specific T suppressor Inducer factor [7, 11]: .56 OD at 405nm
- MBP-specific T suppressor Inducer factor ([7]; animal 18497, 1mg/feeding, day -1): none
- MBP-specific T suppressor Inducer factor ([7]; animal 18497, 1mg/feeding, day -13): none
- MBP-specific T suppressor Inducer factor [7, 12]: none
- MBP-specific T suppressor Inducer factor [7, 13]: .32 OD at 405nm
- MBP-specific T suppressor Inducer factor ([7]; animal 18498, 20mg/feeding, day +20): .32 OD at 405nm
- MBP-specific T suppressor Inducer factor [7, 14]: .42 OD at 405nm
- MBP-specific T suppressor Inducer factor ([7]; animal 18498, 20mg/feeding, day +34): .40 OD at 405nm
- MBP-specific T suppressor Inducer factor [7, 15]: .40 OD at 405nm
- MBP-specific T suppressor Inducer factor ([7]; animal 18498, 20mg/feeding, day -1): none
- MBP-specific T suppressor Inducer factor ([7]; animal 18498, 20mg/feeding, day -13): none
- anti-Tsfi (3C9 Ab) [7, 8]: 0.76 OD405 nm
- anti-Tsfi (3C9 Ab) [7, 9]: none
- anti-Tsfi (3C9 Ab) [7, 10]: 0.60 OD405 nm
- anti-Tsfi (3C9 Ab) [7, 11]: 0.56 OD405 nm
- anti-Tsfi (3C9 Ab) [7, 12]: none
- anti-Tsfi (3C9 Ab) [7, 13]: 0.32 OD405 nm
- anti-Tsfi (3C9 Ab) [7, 14]: 0.42 OD405 nm
- anti-Tsfi (3C9 Ab) [7, 15]: 0.40 OD405 nm
